{"source": "paper PMC10933344", "about": "“A lncRNA Dleu2-encoded peptide relieves autoimmunity by facilitating Smad3-mediated Treg induction” (EMBO Reports, 2024)", "key": {"[1]": {"system": "Foxp3 CNS1-luciferase reporter / Smad3", "assay": "Foxp3 CNS1-luciferase reporter assay in NIH/3T3 cells", "type": "cell-based, mouse", "settings": "20 μM", "protocol": "Figure 4 Dleu2-17aa modulates TGF-β/Smad signaling to promote Foxp3 transcription. (A) qPCR analysis of TGF-β/Smad signaling downstream genes in CD4^+ T cells treated with Dleu2-17aa or scrPEP for 24 h and challenged with TGF-β to activate the signaling pathway (n = 3). (B) NIH/3T3 cells were transfected with a Foxp3 CNS1-luciferase reporter plasmid and a Smad3 expression vector. Subsequently, the cells were treated with either Dleu2-17aa or scrPEP. Luciferase activity fold induction was quantified (n = 3). (C) Foxp3 CNS1 region enrichment by Smad3 treated with or without Dleu2-17aa for 24 h in CD4^+ T cells was assessed by ChIP-qPCR (n = 3). (D) EMSA was performed in NIH/3T3 cell nuclear lysates using a 10 μM biotin-labeled Foxp3 probe and treated with Dleu2-17aa or scrPEP (3, 10, 30 μM). There were band shifts to a higher molecular weight and an increase in band intensity by Dleu2-17aa treatment. Data information: n indicates biological replicate. Error bars are mean ± SEM; **P < 0.01, and ***P < 0.001. Statistical analysis was by two-tailed Student’s t-test for (A–C). Source data are available online for this figure.\nNIH/3T3 cells were seeded at 5 × 10^5 cells/well in 24-well plates and transfected with 0.2 μg/well of pGL3 Foxp3 CNS1-luciferase reporter and the internal control vector pRL-TK (Promega) at a ratio of 10:1 (reporter construct: control vector) using LipofectamineTM 2000 according to the manufacturer’s protocol; For specific groups, co-transfect with pcDNA3.1-Smad3, an empty vector served as the control. After 7 h, remove the transfection medium and replace it with fresh medium containing either 20 μM Dleu2-17aa or PBS. 24 h post-transfection, luciferase activity was measured using the Dual-Luciferase® Reporter Assay System (Promega) according to the manufacturer’s protocol."}, "[2]": {"system": "Smad3 binding to Foxp3 CNS1 region", "assay": "EMSA, Foxp3 CNS1 probe, NIH/3T3 nuclear lysates", "settings": "3, 10, 30 μM; NIH/3T3 nuclear extracts", "protocol": "EMSA was performed using the LightShift Chemiluminescent EMSA kit (Thermo Fisher Scientific, #20148). Briefly, Nuclear extracts of NIH/3T3 cells were prepared using theNE-PER Nuclear and Cytoplasmic Extraction Kit (Thermo Fisher Scientific, #78835). Complementary DNA oligonucleotide Foxp3 CNS1 region probes were 5′-[…]-3′ and 5′-[…]-3′, AP-1 probes were 5′-[…]-3′ and 5′-[…]-3′, PAI-1 probes were 5′-[…]-3′ and 5′-[…]-3′. Probes were end-labeled with biotin and annealed. The reaction mix consists of labeled oligonucleotides, 10 µg of the nuclear extracts, and 3, 10, 30 μM Dleu2-17aa or scrPEP. The binding reaction was incubated at room temperature for 30 min, followed by loading onto a 6% native DNA polyacrylamide gel. The gel was prerun and run with […] Tris-Borate-EDTA and processed according to the manufacturer’s instructions."}, "[3]": {"system": "Foxp3 CNS1-luciferase reporter / Smad3", "assay": "Foxp3 CNS1-luciferase reporter assay in NIH/3T3 cells", "type": "cell-based, mouse", "settings": "20 μM", "remark": "listed apart in the source"}}, "data": [{"sequence": "ARGPARRMRGGRRRRLR [scrPEP, scrambled control peptide of Dleu2-17aa]", "values": [{"measurement": "Relative luciferase activity", "setting": "[1]; with Smad3 vector, replicate 1", "value": 2.57}, {"measurement": "Relative luciferase activity", "setting": "[1]; with Smad3 vector, replicate 2", "value": 2.653}, {"measurement": "Relative luciferase activity", "setting": "[1]; with Smad3 vector, replicate 3", "value": 2.615}, {"measurement": "Relative luciferase activity", "setting": "[1]; without Smad3 vector, replicate 1", "value": 0.9636}, {"measurement": "Relative luciferase activity", "setting": "[1]; without Smad3 vector, replicate 2", "value": 0.91}, {"measurement": "Relative luciferase activity", "setting": "[1]; without Smad3 vector, replicate 3", "value": 1.069}, {"measurement": "Smad3 binding to the CNS1 region of Foxp3 (EMSA)", "setting": "[2]", "value": "did not"}, {"measurement": "Relative luciferase activity", "setting": "[3]; with Smad3 vector, replicate 4", "value": 1.896}, {"measurement": "Relative luciferase activity", "setting": "[3]; with Smad3 vector, replicate 5", "value": 1.262}, {"measurement": "Relative luciferase activity", "setting": "[3]; without Smad3 vector, replicate 4", "value": 0.7583}, {"measurement": "Relative luciferase activity", "setting": "[3]; without Smad3 vector, replicate 5", "value": 0.8478}]}]}
